Source: US6242440A, “Synergistic compositions comprising an oxathiazine and a benzothiophene-2-carboxamide-S,S-dioxide” (Janssen Pharmaceutica N.V., priority 1997, dated 2001)

Columns and labels:
Aspergillus niger = assay: poison plate assay, mycelial growth and sporulation; format: cell-based
Protocol: (§1) The efficacy of the active ingredients against mycelial growth and sporulation of Aureobasidium pullulans, Aspergillus niger, Scierophoma entoxylina, Trichodenna viride, was determined in the poison plate assay. The required concentrations of the fungicide(s) were obtained by diluting the active ingredients (I), (II) or the combination of (I) and (II) in dimethyl sulfoxide (DMSO) at 800 times the final test concentration. The stock solutions in DMSO were pipetted into Petri-dishes. Malt extract agar (3%) was added aseptically and uniform distribution was obtained by shaking. Each plate was spot inoculated with a spore or mycelial suspension. After incubation at 22° C. and 70% relative humidity for a period long enough to allow complete growth of controls, diameters of colonies were measured. Relative activities were calculated by taking the absence of fungal growth (diameter 0 mm) as 100%. From the activity of the active ingredients alone, the expected activities E were calculated by using the so-called formula of Colby: (Colby, S. R. Weeds 1967, 15: 20-22), [formula]
(§2) wherein X and Y express the relative activities obtained for each of the active ingredients. A synergistic effect can be acknowledged if the found activity exceeds calculated activity.
(§3) Equal efficacy was observed whenever complete inhibition of fungal growth occurred by one of the active ingredients (I) or (II) alone. The compound of formula (I) used in the experiment was 3-benzo[b]-thien-2-yl)-5,6-dihydro-1,4,2-oxathiazine 4-oxide, i.e. compound (1). The compound of formula (II) used in the experiment was N-cyclohexyl-benzothiophene-2-carboxamide-S,S-dioxide, i.e. compound (2).

Aureobasidium pullulans = assay: as above; format: cell-based
Protocol: as §1, §2, §3

Sclerophoma entoxylina = assay: as above; format: cell-based
Protocol: as §1, §2, §3

Trichoderma viride = assay: as above; format: cell-based
Protocol: as §1, §2, §3

Aureobasidium = assay: wood stick test (Scots Pine); format: cell-based, Aureobasidium pullulans; conditions: read-out: measured (relative) activity %
Protocol: (§4) Oven-dried wood sticks (50×12×2 mm) of Scots Pine (Pinus sylvestris) were dipped during 3 hours in a methanol solution comprising a compound of formula (I), a compound of formula (II), or a combination of a compound of formula (I) and a compound of formula (II), and allowed to dry overnight in a sterile laminar air flow. In each Petri dish one stick was placed on culture medium, PDA PS (Potato Dextrose Agar containing 60 mg penicillin and 200 mg streptomycin), previously seeded with inoculum. Two drops of fungal or spore suspension were pipetted on the upper surface of the stick The Petri dishes were incubated at 22° C. and 70% relative humidity. The test was evaluated after sufficient growth of the fungus on the control sticks. The following score system was used:
(§5) 0: sticks free of fungal growth
(§6) 1: traces of growth on the stick
(§7) 2: slight growth (5 to 25% of the surface covered)
(§8) 3 : moderate growth (25 to 50% of the surface covered)
(§9) 4: vigorous to maximum growth (more tha 50% covered)
(§10) To calculate synergism results were converted to the next artificial activities:
(§11) Yhe expected activities E were calculated by using the so-called formula of Colby: (Colby, S. R. Weeds 1967, 15: 20-22), [formula]
as §2
(§12) The compound of formula (I) used in the experiment was 3-benzo[b]-thien-2-yl)-5,6-dihydro-1,4,2-oxathiazine 4-oxide, i.e. compound (1). The compound of formula (II) used in the experiment was N-cyclohexyl-benzothiophene-2-carboxamide-S,S-dioxide, i.e. compound (2).

Aspergillus = assay: wood stick test (Scots Pine); format: cell-based, Aspergillus niger
Protocol: as §4, §5, §6, §7, §8, §9, §10, §11, §2, §12

Sclerophoma = assay: wood stick test (Scots Pine); format: cell-based, Sclerophoma entoxylina
Protocol: as §4, §5, §6, §7, §8, §9, §10, §11, §2, §12

[O-][S+]1CCON=C1c1cc2ccccc2s1 (stereo not shown) [compound (1), 3-(benzo[b]thien-2-yl)-5,6-dihydro-1,4,2-oxathiazine, 4-oxide]
activity measured (Aspergillus niger; Exp 1, 5 days, (1) 0.62 mg/l): 5%
growth (Aspergillus niger; Exp 1, 5 days, (1) 0.62 mg/l): 42 mm
activity measured (Aspergillus niger; Exp 1, 5 days, (1) 1.25 mg/l): 14%
growth (Aspergillus niger; Exp 1, 5 days, (1) 1.25 mg/l): 38 mm
activity measured (Aspergillus niger; Exp 1, 5 days, (1) 2.50 mg/l): 39%
growth (Aspergillus niger; Exp 1, 5 days, (1) 2.50 mg/l): 27 mm
activity measured (Aspergillus niger; Exp 1, 5 days, (1) 5.00 mg/l): 100%
growth (Aspergillus niger; Exp 1, 5 days, (1) 5.00 mg/l): 0 mm
activity measured (Aspergillus niger; Exp 2, 7 days, (1) 1.25 mg/l): 16%
growth (Aspergillus niger; Exp 2, 7 days, (1) 1.25 mg/l): 38 mm
activity measured (Aspergillus niger; Exp 2, 7 days, (1) 2.50 mg/l): 44%
growth (Aspergillus niger; Exp 2, 7 days, (1) 2.50 mg/l): 25 mm
activity measured (Aureobasidium pullulans; Exp 1, 5 days, (1) 0.62 mg/l): 13%
growth (Aureobasidium pullulans; Exp 1, 5 days, (1) 0.62 mg/l): 33 mm
activity measured (Aureobasidium pullulans; Exp 1, 5 days, (1) 1.25 mg/l): 32%
growth (Aureobasidium pullulans; Exp 1, 5 days, (1) 1.25 mg/l): 26 mm
activity measured (Aureobasidium pullulans; Exp 1, 5 days, (1) 2.50 mg/l): 61%
growth (Aureobasidium pullulans; Exp 1, 5 days, (1) 2.50 mg/l): 15 mm
activity measured (Aureobasidium pullulans; Exp 1, 5 days, (1) 5.00 mg/l): 87%
growth (Aureobasidium pullulans; Exp 1, 5 days, (1) 5.00 mg/l): 5 mm
activity measured (Aureobasidium pullulans; Exp 2, 7 days, (1) 1.25 mg/l): 8%
growth (Aureobasidium pullulans; Exp 2, 7 days, (1) 1.25 mg/l): 44 mm
activity measured (Aureobasidium pullulans; Exp 2, 7 days, (1) 2.50 mg/l): 21%
growth (Aureobasidium pullulans; Exp 2, 7 days, (1) 2.50 mg/l): 38 mm
activity measured (Sclerophoma entoxylina; Exp 1, 5 days, (1) 0.62 mg/l): 2%
growth (Sclerophoma entoxylina; Exp 1, 5 days, (1) 0.62 mg/l): 42 mm
activity measured (Sclerophoma entoxylina; Exp 1, 5 days, (1) 1.25 mg/l): 14%
growth (Sclerophoma entoxylina; Exp 1, 5 days, (1) 1.25 mg/l): 37 mm
activity measured (Sclerophoma entoxylina; Exp 1, 5 days, (1) 2.50 mg/l): 37%
growth (Sclerophoma entoxylina; Exp 1, 5 days, (1) 2.50 mg/l): 27 mm
activity measured (Sclerophoma entoxylina; Exp 1, 5 days, (1) 5.00 mg/l): 84%
growth (Sclerophoma entoxylina; Exp 1, 5 days, (1) 5.00 mg/l): 7 mm
activity measured (Sclerophoma entoxylina; Exp 2, 7 days, (1) 1.25 mg/l): 4%
growth (Sclerophoma entoxylina; Exp 2, 7 days, (1) 1.25 mg/l): 47 mm
activity measured (Sclerophoma entoxylina; Exp 2, 7 days, (1) 2.50 mg/l): 18%
growth (Sclerophoma entoxylina; Exp 2, 7 days, (1) 2.50 mg/l): 40 mm
activity measured (Trichoderma viride; Exp 1, 5 days, (1) 0.62 mg/l): 0%
growth (Trichoderma viride; Exp 1, 5 days, (1) 0.62 mg/l): 49 mm
activity measured (Trichoderma viride; Exp 1, 5 days, (1) 1.25 mg/l): 0%
growth (Trichoderma viride; Exp 1, 5 days, (1) 1.25 mg/l): 49 mm
activity measured (Trichoderma viride; Exp 1, 5 days, (1) 2.50 mg/l): 2%
growth (Trichoderma viride; Exp 1, 5 days, (1) 2.50 mg/l): 48 mm
activity measured (Trichoderma viride; Exp 1, 5 days, (1) 5.00 mg/l): 29%
growth (Trichoderma viride; Exp 1, 5 days, (1) 5.00 mg/l): 35 mm
activity measured (Trichoderma viride; Exp 2, 7 days, (1) 1.25 mg/l): 12%
growth (Trichoderma viride; Exp 2, 7 days, (1) 1.25 mg/l): 43 mm
activity measured (Trichoderma viride; Exp 2, 7 days, (1) 2.50 mg/l): 29%
growth (Trichoderma viride; Exp 2, 7 days, (1) 2.50 mg/l): 35 mm
activity at 200 ppm (Aureobasidium; (1) 200 ppm): 0%
activity at 400 ppm (Aureobasidium; (1) 400 ppm): 50%
% overgrown of the sticks (Aspergillus; (1) 200 ppm): 100%
stick test scores (Aspergillus; (1) 200 ppm): 4 (vigorous to maximum growth (more tha 50% covered))
% overgrown of the sticks (Aspergillus; (1) 400 ppm): 50%
stick test scores (Aspergillus; (1) 400 ppm): 3 (moderate growth (25 to 50% of the surface covered))
activity at 400 ppm (Aspergillus; Aspergillus, (1) 400 ppm, read-out: measured (relative) activity %): 50%
% overgrown of the sticks (Sclerophoma; (1) 200 ppm): 100%
stick test scores (Sclerophoma; (1) 200 ppm): 4 (vigorous to maximum growth (more tha 50% covered))
% overgrown of the sticks (Sclerophoma; (1) 400 ppm): 50%
stick test scores (Sclerophoma; (1) 400 ppm): 3 (moderate growth (25 to 50% of the surface covered))
activity at 200 ppm (Sclerophoma; Sclerophoma entoxylina, (1) 200 ppm, read-out: measured (relative) activity %): 0%
activity at 400 ppm (Sclerophoma; Sclerophoma entoxylina, (1) 400 ppm, read-out: measured (relative) activity %): 50%
